Reference: publication PMC11620503 (Antimicrobial Agents and Chemotherapy, 2024)
Converted amounts (≈) assume the structure as drawn. Like-named read-outs stand apart in the source and are kept apart here.

Legend:
Assay in all cases: MIC, broth microdilution
[1] = tested on: 207 Enterobacterales including carbapenem-resistant isolates; type: cell-based; conditions: for MIC90: read-out: MIC90
[2] = tested on: MEM-nonsusceptible Enterobacterales; type: cell-based; conditions: MEM-nonsusceptible Enterobacterales (127), cefiderocol 126 isolates; for MIC90: read-out: MIC90
[3] = tested on: serine-carbapenemase-producing isolates (Enterobacterales); type: cell-based; conditions: Enterobacterales with serine-carbapenemases (80); for MIC50 / MIC90: fixed concentration (μg/mL) in label; for MIC50: read-out: MIC50; for MIC90: read-out: MIC90
[4] = tested on: MBL-producing isolates (Enterobacterales); type: cell-based; conditions: Enterobacterales with metallo-carbapenemases (74), cefiderocol 73 isolates; for MIC90: read-out: MIC90
[5] = tested on: 55 isolates of A. baumannii; type: cell-based, Acinetobacter baumannii; conditions: Acinetobacter baumannii (55); for MIC90: read-out: MIC90
96 P. aeruginosa = type: cell-based, Pseudomonas aeruginosa; conditions: Pseudomonas aeruginosa (96); for MIC50 / MIC90: fixed concentration (μg/mL) in label; for MIC50: read-out: MIC50; for MIC90: read-out: MIC90
[6] = tested on: MEM-, imipenem/relebactam-, and ceftolozane/tazobactam-nonsusceptible P. aeruginosa; type: cell-based, Pseudomonas aeruginosa; conditions: for CLSI MIC interpretation I (intermediate) / CLSI MIC interpretation R (resistant) / CLSI MIC interpretation S (susceptible): marked c: breakpoints for β-lactam alone; for MIC50 / MIC90: Pseudomonas aeruginosa; for MIC50: read-out: MIC50; for MIC90: read-out: MIC90
[7] = tested on: MEM-nonsusceptible Enterobacterales with serine-carbapenemases; type: cell-based; conditions: MEM-nonsusceptible Enterobacterales with serine-carbapenemases (58)
[8] = tested on: MEM-nonsusceptible Enterobacterales with metallo-carbapenemases; type: cell-based; conditions: MEM-nonsusceptible Enterobacterales with metallo-carbapenemases (55), cefiderocol 54 isolates
[9] = All Enterobacterales (207), cefiderocol 205 isolates, CLSI breakpoints, marked c: breakpoints for β-lactam alone, tigecycline: FDA breakpoints
[10] = CLSI breakpoints, marked c: breakpoints for β-lactam alone, tigecycline: FDA breakpoints
[11] = fixed concentration (μg/mL) in label, read-out: MIC50
[12] = fixed concentration (μg/mL) in label
[13] = CLSI breakpoints, marked c: breakpoints for β-lactam alone
[14] = Imipenem/relebactam-nonsusceptible Pseudomonas aeruginosa (43), CLSI breakpoints
[15] = MEM-nonsusceptible Pseudomonas aeruginosa (76), CLSI breakpoints
[16] = Imipenem/relebactam-nonsusceptible Pseudomonas aeruginosa (43), fixed concentration (μg/mL) in label
[17] = MEM-nonsusceptible Pseudomonas aeruginosa (76), fixed concentration (μg/mL) in label
[18] = fixed concentration (μg/mL) in label, read-out: MIC90

`NCC[C@H](O)C(=O)N[C@@H]1C[C@H](N)[C@@H](O[C@H]2O[C@H](CN)[C@@H](O)[C@H](O)[C@H]2O)[C@H](O)[C@H]1O[C@H]1O[C@H](CO)[C@@H](O)[C@H](N)[C@H]1O` [Amikacin] was tested, and the “CLSI MIC interpretation I (intermediate)” value [1, 9] was 6.3%, the “CLSI MIC interpretation R (resistant)” value [1, 9] was 36.7% and the “CLSI MIC interpretation S (susceptible)” value [1, 9] was 57%. The MIC50 ([1]; read-out: MIC50) was 4 µg/mL (≈ 6.83 µM), the MIC90 [1] was greater than 64 µg/mL and the “CLSI MIC interpretation I (intermediate)” value [2, 10] was 7.9%. The “CLSI MIC interpretation R (resistant)” value [2, 10] was 52%, the “CLSI MIC interpretation S (susceptible)” value [2, 10] was 40.2% and the MIC50 [2, 11] was 16 µg/mL (≈ 27.3 µM). For the same molecule, the MIC90 [2, 12] was greater than 64 µg/mL, the “CLSI MIC interpretation I (intermediate)” value [3, 10] was 8.8% and the “CLSI MIC interpretation R (resistant)” value [3, 10] was 37.5%. The “CLSI MIC interpretation S (susceptible)” value [3, 10] was 53.8%, the MIC50 [3] was 4 µg/mL (≈ 6.83 µM) and the MIC90 [3] was 64 µg/mL (≈ 109 µM). The “CLSI MIC interpretation I (intermediate)” value [4, 10] was 5.4%, the “CLSI MIC interpretation R (resistant)” value [4, 10] was 52.7% and the “CLSI MIC interpretation S (susceptible)” value [4, 10] was 41.9%. For the same molecule, the MIC50 [4, 11] was 16 µg/mL (≈ 27.3 µM), the MIC90 [4, 12] was greater than 64 µg/mL and the “CLSI MIC interpretation I (intermediate)” value [5, 13] was 14.5%. For the same molecule, the “CLSI MIC interpretation R (resistant)” value [5, 13] was 56.4%, the “CLSI MIC interpretation S (susceptible)” value [5, 13] was 29.1% and the MIC50 [5, 11] was 64 µg/mL (≈ 109 µM). The MIC90 [5, 12] was greater than 64 µg/mL, the “CLSI MIC interpretation I (intermediate)” value (96 P. aeruginosa; [13]) was 7.3% and the “CLSI MIC interpretation R (resistant)” value (96 P. aeruginosa; [13]) was 29.2%. For the same molecule, the “CLSI MIC interpretation S (susceptible)” value (96 P. aeruginosa; [13]) was 63.5%, the MIC50 (96 P. aeruginosa) was 8 µg/mL (≈ 13.7 µM) and the MIC90 (96 P. aeruginosa) was greater than 64 µg/mL. The “CLSI MIC interpretation (%) I” value ([6]; I, intermediate (including susceptible dose-dependent), CLSI breakpoints, last subgroup of Table 2) was 11.1%, the “CLSI MIC interpretation I (intermediate)” value [6, 14] was 9.3% and the “CLSI MIC interpretation R (resistant)” value [6, 14] was 58.1%. The “CLSI MIC interpretation S (susceptible)” value [6, 14] was 32.6%, the “CLSI MIC interpretation I (intermediate)” value [6, 15] was 7.9% and the “CLSI MIC interpretation R (resistant)” value [6, 15] was 36.8%. The “CLSI MIC interpretation S (susceptible)” value [6, 15] was 55.3%, the MIC50 [6, 16] was 64 µg/mL and the MIC90 [6, 16] was greater than 64 µg/mL. It also gave an MIC50 [6, 17] of 8 µg/mL (≈ 13.7 µM), an MIC90 [6, 17] greater than 64 µg/mL and an MIC50 ([6]; Table 2, broth microdilution) of 64 µg/mL (≈ 109 µM). The MIC90 ([6]; Table 2, broth microdilution) was greater than 64 µg/mL, the “CLSI MIC interpretation (%) R” value ([6]; R, resistant, CLSI breakpoints, last subgroup of Table 2) was 55.6% and the “CLSI MIC interpretation (%) S” value ([6]; S, susceptible, CLSI breakpoints, last subgroup of Table 2) was 33.3%. For the same molecule, the “CLSI MIC interpretation I (intermediate)” value [7, 10] was 10.3%, the “CLSI MIC interpretation R (resistant)” value [7, 10] was 44.8% and the “CLSI MIC interpretation S (susceptible)” value [7, 10] was 44.8%. The MIC50 [7, 11] was 8 µg/mL (≈ 13.7 µM), the MIC90 [7, 18] was 64 µg/mL (≈ 109 µM) and the “CLSI MIC interpretation I (intermediate)” value [8, 10] was 5.5%. For the same molecule, the “CLSI MIC interpretation R (resistant)” value [8, 10] was 65.5%, the MIC50 [8, 11] was 32 µg/mL (≈ 54.6 µM) and the MIC90 [8, 18] was greater than 64 µg/mL.
Molecule `O=C(O)c1cn(C2CC2)c2cc(N3CCNCC3)c(F)cc2c1=O` [Ciprofloxacin] has an MIC90 [1] greater than 64 µg/mL, an MIC90 [2, 12] greater than 64 µg/mL and an MIC50 [3] of 32 µg/mL (≈ 96.6 µM). For the same molecule, the MIC90 [3] was greater than 64 µg/mL, the MIC90 [4, 12] was greater than 64 µg/mL and the MIC90 [5, 12] was greater than 64 µg/mL. For the same molecule, the MIC50 (96 P. aeruginosa) was 16 µg/mL (≈ 48.3 µM), the MIC90 (96 P. aeruginosa) was 64 µg/mL (≈ 193 µM) and the MIC50 [6, 16] was 32 µg/mL. The MIC90 [6, 16] was 64 µg/mL, the MIC50 [6, 17] was 16 µg/mL (≈ 48.3 µM) and the MIC90 [6, 17] was 64 µg/mL (≈ 193 µM). It also gave an MIC50 ([6]; Table 2, broth microdilution) of 32 µg/mL (≈ 96.6 µM) and an MIC90 ([6]; Table 2, broth microdilution) of 64 µg/mL (≈ 193 µM).
